# According to publication PMC7793531 (International Journal of Molecular Sciences, 2020):
# “Also recorded” adds a separate entry of the source. Starred links: 1 amine or outer side, 2 acyl side, 3 side chain; linkers in the order of their positions; H or OH if unused. Non-standard residues stand in square brackets, D forms with d. Residues, ends and D or L forms follow the SMILES beside them. Groups on a side chain read outwards from the residue. ξ: configuration not given here. *: point of attachment. Oic(3aξ,7aξ) = O=C(O)[C@@H]1CC2CCCCC2N1; hArg = N=C(N)NCCCC[C@H](N)C(=O)O; X1 = N=C(N)NCCCC[C@H](N)CN*; X3 = N=C(N)NCCC[C@H](N)CN*; X2 = N=C(N)NCC[C@H](N)CN*; Orn = NCCC[C@H](N)C(=O)O; Dab = NCC[C@H](N)C(=O)O; CO = O=C([*:1])[*:2]
# Target: T1, VEGF-A165/NRP-1 complex (Homo sapiens, UniProt O14786)
# T1 construct: purchased R&D Systems
# T1 sequence (O14786 22-641 limits assumed): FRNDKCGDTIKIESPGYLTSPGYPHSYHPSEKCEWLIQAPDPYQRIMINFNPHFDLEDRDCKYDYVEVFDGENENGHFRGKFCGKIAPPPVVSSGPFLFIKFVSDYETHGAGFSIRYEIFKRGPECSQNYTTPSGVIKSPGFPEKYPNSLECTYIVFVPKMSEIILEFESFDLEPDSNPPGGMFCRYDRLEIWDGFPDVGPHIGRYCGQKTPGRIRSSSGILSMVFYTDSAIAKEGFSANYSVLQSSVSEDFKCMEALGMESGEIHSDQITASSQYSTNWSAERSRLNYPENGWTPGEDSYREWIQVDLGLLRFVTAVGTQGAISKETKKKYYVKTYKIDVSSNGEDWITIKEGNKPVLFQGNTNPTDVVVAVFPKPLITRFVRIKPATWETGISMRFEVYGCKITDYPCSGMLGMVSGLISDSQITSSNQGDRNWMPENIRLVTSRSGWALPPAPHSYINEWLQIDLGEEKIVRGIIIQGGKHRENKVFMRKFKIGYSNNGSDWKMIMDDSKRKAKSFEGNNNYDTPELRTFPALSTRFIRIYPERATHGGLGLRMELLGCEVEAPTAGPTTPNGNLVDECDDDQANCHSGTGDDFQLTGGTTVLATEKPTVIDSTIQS
# Test: Competitive ELISA-like assay, inhibition of bt-VEGF-A165 binding to immobilized NRP-1
# Conditions: recombinant human NRP-1, bt-VEGF-A165, chemiluminescence; read-out: IC50, VEGF-A165/NRP-1 complex inhibitory effect
# Protocol: Inhibitory activity of urea–peptide hybrids against VEGF-A165/NRP-1 complex formation was assessed with a screening ELISA-like assay. NRP-1 was immobilized on microplate wells by simple adsorption and urea–peptide hybrids competed for NRP-1 with biotinylated VEGF-A165 (bt-VEGF-A165). The amount of receptor bound bt-VEGF-A165 was visualized by its interaction with the streptavidin–horseradish peroxidase conjugate (strep-HRP) and the chemiluminescent substrate. The first analyzed group of compounds were analogues 1–3 with the urea bond between L1 and L2. […] The best hybrid in this group was compound 3, which had Lys^U (gDab) branching (where “g” corresponds to guanidinium group), but its IC50 value decreased only 2-fold. Therefore, we assume that no additional interactions between urea bond and the surface of the protein occurred. […] In the case of urea–peptide hybrids, the urea bond might be capable of forming additional hydrogen bonds with protein residues on the surface of NRP-1. The affinity of compounds may conceivably be affected by the colocation of the urea bond and the free amino group of hArg in the branching. In addition, for compounds 4–6, we can observe that decreasing the distance between the free amino group in the main chain and the urea bond in the branching has a positive effect on compounds’ affinity for NRP-1.
# This method was previously described for NRP-1 [44, 45, 46]. Briefly, overnight coating at 4 °C of the flat bottom surface of a 96-well plate with 100 μL (200 ng/well) recombinant human NRP-1, NRP-2, VEGFR-1 or VEGFR-2 was followed by non-specific interactions blocking using 0.5% bovine serum albumin (BSA) in PBS. Next, 50 µL of urea–peptide hybrid in PBS and 50 µL (400 ng/mL) of human (bt)-VEGF-A165 in PBS containing 4 µg/mL of heparin were added respectively. Plates were incubated for 2 h at RT, and then washed and treated with streptavidin-horseradish peroxidase conjugate in PBS (1:8000). Next, 100 µL chemiluminescent substrate was added, and luminescence was quantified using Tecan Infinite F200Pro microplate reader (Männedorf, Switzerland). In a positive control (P) only (bt)-VEGF-A165 was present in wells. Not coated by receptor wells were treated as a negative control (N). Percentages of inhibition were calculated by the following formula:100% − [[(S − N)/(P − N)]∙100%](1) where S is the signal intensity measured in wells with urea–peptide hybrid. The IC50 of each urea–peptide hybrid was calculated using the nonlinear regression function with GraphPad Prism Version-5.01 (GraphPad Software, San Diego, CA, USA). Data are presented as log (inhibitor) versus normalized response-variable slope (Figure S16). Data are the means ± SEMs of two or three independent experiments, each performed in triplicate.
row,Compound,IC50 [nM]
1,N=C(N)NCCCC[C@H](N)C(=O)NCC[C@H](N)CNC(=O)N[C@@H](CCN)C(=O)N1C2CCCCC2C[C@H]1C(=O)N[C@@H](CCCNC(=N)N)C(=O)O (some centres unmarked) [Compound 1],1800
2,N=C(N)NCCC[C@H](NC(=O)[C@@H]1CC2CCCCC2N1C(=O)[C@H](CCN)NC(=O)NC[C@@H](N)CCCCNC(=O)[C@@H](N)CCNC(=N)N)C(=O)O (some centres unmarked) [Compound 3],1200
3,N=C(N)NCCC[C@H](NC(=O)[C@@H]1CC2CCCCC2N1C(=O)[C@H](CCN)NC(=O)NC[C@@H](N)CCCNC(=O)[C@@H](N)CCCNC(=N)N)C(=O)O (some centres unmarked) [Compound 2],2100

# Next, values leading:
row,IC50 [nM],Compound
1,490,"N=C(N)NCCC[C@H](NC(=O)[C@@H]1CC2CCCCC2N1C(=O)[C@H](CCN)NC(=O)[C@@H](N)CCCCNC(=O)NC[C@@H](N)CCNC(=N)N)C(=O)O (some centres unmarked) [Compound 4] (H-K([CO-X2])[Dab][Oic(3aξ,7aξ)]R-OH)"
2,1800,N=C(N)NCCC[C@H](NC(=O)[C@@H]1CC2CCCCC2N1C(=O)[C@H](CCN)NC(=O)NC[C@@H](N)CCCNC(=O)NC[C@@H](N)CNC(=N)N)C(=O)O (some centres unmarked) [Compound 9]
3,360,"N=C(N)NCCC[C@H](N)CNC(=O)NCCC[C@H](N)C(=O)N[C@@H](CCN)C(=O)N1C2CCCCC2C[C@H]1C(=O)N[C@@H](CCCNC(=N)N)C(=O)O (some centres unmarked) [Compound 5] (H-[Orn]([CO-X3])[Dab][Oic(3aξ,7aξ)]R-OH)"
4,2100,N=C(N)NCCC[C@H](NC(=O)[C@@H]1CC2CCCCC2N1C(=O)[C@H](CCN)NC(=O)NC[C@@H](N)CCNC(=O)NC[C@@H](N)CCNC(=N)N)C(=O)O (some centres unmarked) [Compound 8]
5,2100,N=C(N)NCCC[C@H](N)CNC(=O)NC[C@H](N)CNC(=O)N[C@@H](CCN)C(=O)N1C2CCCCC2C[C@H]1C(=O)N[C@@H](CCCNC(=N)N)C(=O)O (some centres unmarked) [Compound 7]

# Test system: not listed separately
# Test: In vitro enzymatic stability in human blood serum (LC-SWATH-MS)
# Type: in vitro ADME
# Conditions: human blood serum (pooled from four healthy persons), 37 °C, after 24 h, read-out: initial substrate concentration remaining
# Protocol: Rapid renal clearance and enzymatic degradation are classified as most important disadvantages of peptides as drugs. Covalent linkage to plasma proteins or chemical modifications, including amide bond modifications, might improve their half-lives. We performed proteolytic stability studies in human blood serum to investigate whether the introduction of urea bonds affected the half-lives of compounds from each of synthesized group of hybrids. Compounds 3, 6 and 7 were incubated with human serum at 37 °C. Samples were taken at different time intervals and analyzed using LC-SWATH-MS [88, 89, 90]. […] Hybrids 6 and 7 were stable toward enzymatic degradation, with 50% of each compound still being intact after 96 h (Figure 5). […] Overall, it can be concluded that the substitution of an amide bond with a urea bond has a positive effect on the proteolytic stability of the examined inhibitors.
# The study was conducted in full accordance with ethical principles in accordance with the ICH E6 (R2) Guideline for Good Clinical Practice and the Code of Good Customs in Science developed by the Polish Academy of Sciences. Signed consent for using serum was obtained from volunteers. The Rector’s Commission for Ethics of Scientific Research with Human Participation, University of Warsaw, Warsaw, Poland gave the ethical approval (approval number 51/2020). Human blood from four healthy persons was directly drawn into evacuated tubes and left undisturbed at room temperature for 1 h to clot. Tubes were centrifuged at 2500× g for 10 min to prevent possible platelet activation. Serum was pipetted out of the blood collection tubes, pooled and collected in microtubes.
# A degradation assay was adapted from a method described previously. Human blood serum was preactivated in Eppendorf ThermoMixer® Comfort (Hamburg, Germany) at 37 °C for 20 min (350 rpm). Next, 20 μL of aqueous urea–peptide hybrid stock solution was added to give ∼750 μg/mL final compound concentration, and incubation was continued. At selected time intervals, 50 μL of the mixture was collected and quenched by adding 200 μL of ACN:H2O:FA mixture (89:10:1, v:v:v). The obtained suspension was vortexed for 1 min (3000 min^−1) and centrifuged for 10 min in 4 °C (11,000× g). 100 μL of supernatant was collected and lyophilized. The samples reconstituted in 1 mL of 10 mM ammonium formate with 0.1% FA were subjected to LC-MS. Relative concentration at time intervals was calculated using peak area of either individual or most intense fragment of compound of interest. Analyst software version 1.7.1 was used for data acquisition, Peak View 2.2 and MultiQuant 2.1 (Sciex, ON) were used for data processing. Detailed analytical data can be found in Supplementary Materials (Figures S17–S45). […]
row,remaining at 24 h [%],Compound
1,~25,N=C(N)NCCC[C@H](NC(=O)[C@@H]1CC2CCCCC2N1C(=O)[C@H](CCN)NC(=O)NC[C@@H](N)CCCCNC(=O)[C@@H](N)CCNC(=N)N)C(=O)O (some centres unmarked) [Compound 3]

# Same assay, conditions: human blood serum (pooled from four healthy persons), 37 °C, after 96 h, read-out: compound still intact
row,remaining at 96 h [%],Compound
1,50,N=C(N)NCCC[C@H](N)CNC(=O)NC[C@H](N)CNC(=O)N[C@@H](CCN)C(=O)N1C2CCCCC2C[C@H]1C(=O)N[C@@H](CCCNC(=N)N)C(=O)O (some centres unmarked) [Compound 7]

# Test system: not listed separately
# Test: Human blood serum
# Conditions: 37 °C, up to 96 h
Compound,cleaved bond,fragment found,not cleaved
"Lys(hArg)-Dab-Oic-Arg (H-K(hArg)[Dab][Oic(3aξ,7aξ)]R-OH)","hArgL1'-LysL1, major; also recorded: LysL1-DabL2; also recorded: OicL3-ArgL4",C25H48N9O5+ (RT 2.87 min); also recorded: C19H36N7O4+ (RT 3.54 min),–
H2N-LysU(gDab)-Dab-Oic-Arg-OH,gDabL1'-Lys^UL1; also recorded: OicL3-ArgL4,C25H49N10O5+ (RT 5.43 min),urea bonds remained intact within the monitored time of the experiment
"H-Dab(hArg^U)Dab-Oic-Arg-OH (H-[Dab]([CO-X1])[Dab][Oic(3aξ,7aξ)]R-OH; SMILES N=C(N)NCCCC[C@H](N)CNC(=O)NCC[C@H](N)C(=O)N[C@@H](CCN)C(=O)N1C2CCCCC2C[C@H]1C(=O)N[C@@H](CCCNC(=N)N)C(=O)O)",OicL3-ArgL4; also recorded: DabL1-DabL2,C25H49N10O5+ (RT 5.36/5.72 min); also recorded: C25H46N10O4+ (RT 6.44/6.64 min); also recorded: C19H36N7O4+ (RT 3.53 min); also recorded: C12H27N7O3+ (RT 1.21 min),urea bonds remained intact within the monitored time of the experiment
H2N-DapU(ArgU)-Dab-Oic-Arg-OH,OicL3-ArgL4,–,urea bonds remained intact within the monitored time of the experiment
